{"source": "paper PMC2970562", "about": "“High-Affinity Inhibitors of Human NAD^+-Dependent 15-Hydroxyprostaglandin Dehydrogenase: Mechanisms of Inhibition and Structure-Activity Relationships” (PLoS ONE, 2010)", "key": {"[1]": {"target": "T1, human 15-PGDH (Homo sapiens, UniProt P15428)", "T1 construct": "comprising residues 3–256 of the human HPGD gene (GenBank identifier: 1203982); His6 (GHHHHHH, behind the TEV site) (C, cleaved yes); made in house; host or cells: E. coli BL21(DE3)-R3", "T1 sequence (P15428 3-256)": "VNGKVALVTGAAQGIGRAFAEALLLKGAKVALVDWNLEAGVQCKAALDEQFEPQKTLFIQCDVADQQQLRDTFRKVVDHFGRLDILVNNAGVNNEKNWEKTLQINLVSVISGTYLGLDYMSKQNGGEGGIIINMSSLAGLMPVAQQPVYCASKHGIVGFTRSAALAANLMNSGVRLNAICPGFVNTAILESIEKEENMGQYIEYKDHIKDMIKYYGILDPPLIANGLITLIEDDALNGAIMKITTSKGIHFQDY", "assay": "Substrate (PGE2) and cofactor (NAD+) titrations, mechanism of action, global fitting", "type": "biochemical", "conditions": "for Competitive (CM), fit residual Chi^2 value / Mixed-mode (MM), fit residual Chi^2 value / Noncompetitive (NM), fit residual Chi^2 value / Uncompetitive (UM), fit residual Chi^2 value: global fitting; for Titration of NAD^+ K m / Titration of NAD^+ V max [µmol/(min×mg)] / Titration of NAD^+ k cat/K m[×10^6] / Titration of NAD^+ k cat[1/sec]: 30 µM PGE2", "description": "(§1) Kinetic studies were performed in 100 mM Tris buffer pH 8.0, containing 0.01% Tween-20 and 10 nM 15-PGDH enzyme. […] All inhibitor compounds were dissolved in 10% (v/v) DMSO at varying concentrations from which they were applied at 1∶5 ratio (resulting in a final concentration of 2% (v/v) DMSO in all assays). For each experiment an aliquot of purified enzyme was thawed freshly and pre-diluted to 10 µM in buffer I (5 mM Tris/HCl, pH 8.0, 150 mM NaCl, 0.01% Tween-20). All experiments were performed in white 384-well PCR microplates (Bio-Rad Laboratories, Inc.) in final assay volumes of 20 µL. Twelve-point compound titrations were set up from serially diluted stock solutions in 10% (v/v) DMSO. […] The initial rates recorded in compound titrations were plotted against -log[compound], and non-linear regression (Levenberg-Marquardt) fitting of the dose-response curve to the Hill equation [47] was performed to derive the IC50, using PRISM 5.0 (GraphPad Software, Inc.). For substrate/cofactor titrations, curves with initial rates plotted against the concentration of substrate or cofactor were fitted to the Michaelis-Menten equation, to derive maximal activities, V max, and Michaelis constants, K m. Fitting qualities were judged from the goodness of fit (R^2>0.98)."}, "[2]": {"target": "T1, human 15-PGDH", "assay": "Compound titrations of re-synthesized inhibitors in the kinetic assay", "type": "biochemical", "conditions": "10 nM 15-PGDH, 30 µM PGE2, 200 µM NAD+, 25°C, lower percent substrate conversion; read-out: IC50, re-synthesized compounds", "description": "as §1"}, "[3]": {"target": "T1, human 15-PGDH", "assay": "Differential scanning fluorimetry (DSF), thermal stabilization", "type": "binding", "conditions": "for ∆Tm [°C] NAD+: with 200 µM NAD+; for ∆Tm [°C] NAD+ / ∆Tm [°C] NADH / ∆Tm [°C] apo: 1 µM protein, compound 50 or 250 µM, N/A = no unfolding transition observed in DSF; for ∆Tm [°C] NADH: with 200 µM NADH; for ∆Tm [°C] apo: without cofactor"}, "[4]": {"target": "T2, HADH2 (HSD17β10) (Homo sapiens, UniProt Q99714)", "T2 sequence (Q99714 1-261)": "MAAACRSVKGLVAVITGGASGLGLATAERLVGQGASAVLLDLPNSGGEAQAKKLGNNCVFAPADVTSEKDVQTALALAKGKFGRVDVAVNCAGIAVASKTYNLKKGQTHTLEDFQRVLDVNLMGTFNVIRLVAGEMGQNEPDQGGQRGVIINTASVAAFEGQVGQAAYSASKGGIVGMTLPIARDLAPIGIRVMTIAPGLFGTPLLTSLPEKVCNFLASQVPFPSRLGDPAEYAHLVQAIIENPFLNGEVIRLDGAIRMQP", "assay": "Selectivity screen, hydroxyacyl dehydrogenase (PubChem Assay ID 886)", "experimental": "The list also includes two SDR enzymes, hydroxyacyl dehydrogenase (HADH2, also known as type-10 hydroxysteroid dehydrogenase, HSD17β10; PubChem Assay ID 886) and type-4 hydroxysteroid dehydrogenase (HSD17β4; PubChem Assay ID 893), and a medium-chain dehydrogenase/reductase (MDR), aldehyde dehydrogenase 1 (ALDH1A1; PubChem Assay ID 1030), each of which was tested using a similar experimental protocol to that used for 15-PGDH."}, "[5]": {"conditions": "NAD+ titration, inhibitor 20 nM"}, "[6]": {"conditions": "PGE2 titration, inhibitor 10 nM"}}, "note": "“Also recorded” adds a separate entry of the source."}
{"smiles": "Cc1cccc(-n2cnc3cc(C(=O)N4CCCCC4)ccc32)c1", "note": "[Compound 13, [1-(3-methylphenyl)-1H-benzimidazol-5-yl)(piperidin-1-yl)methanone]", "values": [{"measurement": "decrease of K m for NAD+", "setting": "[1]; [5]", "result": "~45", "unit": "%"}, {"measurement": "decrease of V max", "setting": "[1]; [5]", "result": "approximately 60%"}, {"measurement": "Sum-of-squares F-test p, UM vs. MM", "setting": "[1]; NAD^+ titration", "result": "UM vs. MM:p = 0.0654"}, {"measurement": "Sum-of-squares F-test p, NM vs. MM", "setting": "[1]; PGE2 titration", "result": "NM vs. MM:p = 0.0017"}, {"measurement": "Sum-of-squares F-test p, UM vs. MM", "setting": "[1]; PGE2 titration", "result": "UM vs. MM:p = 0.0133"}, {"measurement": "decrease of V max", "setting": "[1]; [6]", "result": 25, "unit": "%"}, {"measurement": "V max relative to no inhibitor", "setting": "[1]; PGE2 titration, inhibitor 20 nM, in words", "result": "less than half"}, {"measurement": "Preferred mode of inhibition", "setting": "[1]; PGE2 titration, rejection threshold p = 0.05", "result": "MM (MM, mixed-mode inhibition)"}, {"measurement": "Competitive (CM), fit residual Chi^2 value", "setting": "[1]; NAD^+ titration", "result": 0.8764}, {"measurement": "Mixed-mode (MM), fit residual Chi^2 value", "setting": "[1]; NAD^+ titration", "result": 0.9675}, {"measurement": "Noncompetitive (NM), fit residual Chi^2 value", "setting": "[1]; NAD^+ titration", "result": 0.9655}, {"measurement": "Uncompetitive (UM), fit residual Chi^2 value", "setting": "[1]; NAD^+ titration", "result": 0.9664}, {"measurement": "Competitive (CM), fit residual Chi^2 value", "setting": "[1]; PGE2 titration", "result": 0.8669}, {"measurement": "Mixed-mode (MM), fit residual Chi^2 value", "setting": "[1]; PGE2 titration", "result": 0.9797}, {"measurement": "Noncompetitive (NM), fit residual Chi^2 value", "setting": "[1]; PGE2 titration", "result": 0.9777}, {"measurement": "Uncompetitive (UM), fit residual Chi^2 value", "setting": "[1]; PGE2 titration", "result": 0.9784}, {"measurement": "mode of inhibition with respect to the cofactor NAD+", "setting": "[1]; in words", "result": "uncompetitively"}, {"measurement": "mode of inhibition with respect to the substrate PGE2", "setting": "[1]; in words", "result": "noncompetitive, uncompetitive or mixed-modes; also recorded: noncompetitively or in a mixed-type mode"}, {"measurement": "Titration of PGE2 K m", "setting": "[1]; inhibitor 10.0 nM", "result": "3.7 ± 0.5", "unit": "µM"}, {"measurement": "Titration of PGE2 V max[µmol/(min×mg)]", "setting": "[1]; inhibitor 10.0 nM", "result": 21.3, "unit": "µmol/min/mg"}, {"measurement": "Titration of PGE2 k cat/K m[×10^6]", "setting": "[1]; inhibitor 10.0 nM", "result": "2.8 ×10^6"}, {"measurement": "Titration of PGE2 k cat[1/sec]", "setting": "[1]; inhibitor 10.0 nM", "result": "10.3 ± 0.3", "unit": "s⁻¹"}, {"measurement": "Titration of NAD^+ K m", "setting": "[1]; inhibitor 10.0 nM", "result": "10.7 ± 0.6", "unit": "µM"}, {"measurement": "Titration of NAD^+ V max [µmol/(min×mg)]", "setting": "[1]; inhibitor 10.0 nM", "result": 17.5, "unit": "µmol/min/mg"}, {"measurement": "Titration of NAD^+ k cat/K m[×10^6]", "setting": "[1]; inhibitor 10.0 nM", "result": "0.8 ×10^6"}, {"measurement": "Titration of NAD^+ k cat[1/sec]", "setting": "[1]; inhibitor 10.0 nM", "result": "8.5 ± 0.1", "unit": "s⁻¹"}, {"measurement": "Titration of PGE2 K m", "setting": "[1]; inhibitor 20.0 nM", "result": "2.8 ± 0.4", "unit": "µM"}, {"measurement": "Titration of PGE2 V max[µmol/(min×mg)]", "setting": "[1]; inhibitor 20.0 nM", "result": 12.6, "unit": "µmol/min/mg"}, {"measurement": "Titration of PGE2 k cat/K m[×10^6]", "setting": "[1]; inhibitor 20.0 nM", "result": "2.1 ×10^6"}, {"measurement": "Titration of PGE2 k cat[1/sec]", "setting": "[1]; inhibitor 20.0 nM", "result": "6.1 ± 0.2", "unit": "s⁻¹"}, {"measurement": "Titration of NAD^+ K m", "setting": "[1]; inhibitor 20.0 nM", "result": "8.9 ± 0.8", "unit": "µM"}, {"measurement": "Titration of NAD^+ V max [µmol/(min×mg)]", "setting": "[1]; inhibitor 20.0 nM", "result": 8.2, "unit": "µmol/min/mg"}, {"measurement": "Titration of NAD^+ k cat/K m[×10^6]", "setting": "[1]; inhibitor 20.0 nM", "result": "0.4 ×10^6"}, {"measurement": "Titration of NAD^+ k cat[1/sec]", "setting": "[1]; inhibitor 20.0 nM", "result": "4.0 ± 0.1", "unit": "s⁻¹"}, {"measurement": "IC50", "setting": "[2]", "result": "7.9 ± 0.8", "unit": "nM"}, {"measurement": "ΔTm in the presence of NAD+", "setting": "[3]", "result": "7.3±0.2", "unit": "°C"}, {"measurement": "ΔTm in the presence of NADH", "setting": "[3]", "result": "13.5±0.9", "unit": "°C"}, {"measurement": "∆Tm [°C] NAD+", "setting": "[3]", "result": 7.3, "unit": "°C"}, {"measurement": "∆Tm [°C] NADH", "setting": "[3]", "result": 13.5, "unit": "°C"}, {"measurement": "∆Tm [°C] apo", "setting": "[3]", "result": -1.7, "unit": "°C"}, {"measurement": "IC50", "setting": "[4]", "result": "> 57500", "unit": "nM"}]}
{"smiles": "Cc1cc(-c2nnc3n2CCCCC3)c(C)n1-c1ccccc1", "note": "[Compound 72]", "values": [{"measurement": "Sum-of-squares F-test p, NM vs. MM", "setting": "[1]; PGE2 titration", "result": "NM vs. MM:p = 0.3515"}, {"measurement": "effect on the K m", "setting": "[1]; PGE2 titration, in words", "result": "no effect"}, {"measurement": "decrease of V max", "setting": "[1]; [6]", "result": "approximately 50%"}, {"measurement": "Competitive (CM), fit residual Chi^2 value", "setting": "[1]; PGE2 titration", "result": 0.9299}, {"measurement": "Mixed-mode (MM), fit residual Chi^2 value", "setting": "[1]; PGE2 titration", "result": 0.9736}, {"measurement": "Noncompetitive (NM), fit residual Chi^2 value", "setting": "[1]; PGE2 titration", "result": 0.9734}, {"measurement": "Uncompetitive (UM), fit residual Chi^2 value", "setting": "[1]; PGE2 titration", "result": 0.9680}, {"measurement": "mode of inhibition with respect to the substrate PGE2", "setting": "[1]; in words", "result": "noncompetitive or mixed-type"}, {"measurement": "Titration of PGE2 K m", "setting": "[1]; inhibitor 4.0 nM", "result": "5.6 ± 1.1", "unit": "µM"}, {"measurement": "Titration of PGE2 V max[µmol/(min×mg)]", "setting": "[1]; inhibitor 4.0 nM", "result": 22.8, "unit": "µmol/min/mg"}, {"measurement": "Titration of PGE2 k cat/K m[×10^6]", "setting": "[1]; inhibitor 4.0 nM", "result": "2.0 ×10^6"}, {"measurement": "Titration of PGE2 k cat[1/sec]", "setting": "[1]; inhibitor 4.0 nM", "result": "11.1 ± 0.5", "unit": "s⁻¹"}, {"measurement": "Titration of PGE2 K m", "setting": "[1]; inhibitor 10.0 nM", "result": "6.4 ± 0.6", "unit": "µM"}, {"measurement": "Titration of PGE2 V max[µmol/(min×mg)]", "setting": "[1]; inhibitor 10.0 nM", "result": 15.4, "unit": "µmol/min/mg"}, {"measurement": "Titration of PGE2 k cat/K m[×10^6]", "setting": "[1]; inhibitor 10.0 nM", "result": "1.2 ×10^6"}, {"measurement": "Titration of PGE2 k cat[1/sec]", "setting": "[1]; inhibitor 10.0 nM", "result": "7.5 ± 0.2", "unit": "s⁻¹"}, {"measurement": "IC50", "setting": "[2]", "result": "15 ± 1.2", "unit": "nM"}, {"measurement": "∆Tm [°C] NAD+", "setting": "[3]", "result": 5.0, "unit": "°C"}, {"measurement": "∆Tm [°C] NADH", "setting": "[3]", "result": 10.5, "unit": "°C"}, {"measurement": "∆Tm [°C] apo", "setting": "[3]", "result": 0.1, "unit": "°C"}, {"measurement": "IC50", "setting": "[4]", "result": "> 57500", "unit": "nM"}]}
